Reference: paper PMC9369419 (International Journal of Molecular Sciences, 2022)

How the values were obtained:
GluK2 = target: T1, GluK2 (Rattus norvegicus, UniProt P42260); assay: Radioligand binding at recombinant homomeric GluK2 in Sf9 membranes; conditions: recombinant rat homomeric receptor, [3H]-kainic acid, mean ± SEM
T1 construct: made in house; host or cells: Sf9 insect cells (membranes)
Description: Ligand binding affinities at recombinant rat homomeric GluA2, GluK1−3, and GluK5 were determined as previously detailed. […] The filters were dried at 70 °C for 1 h, and 50 μL/well Microscint 20 (PerkinElmer, Waltham, MA, USA) was added. Radioactivity was detected with a TopCounter (PerkinElmer, Waltham, MA, USA). GluA2 and GluK5 assays were filtered on GF/C type filters using Millipore 12-well filtration manifolds (Merck Life Science, Søborg, Denmark) and washed twice with ice-cold assay buffer. Filters were placed in pony vials (PerkinElmer, Waltham, MA, USA), 3 mL of Ultima Gold scintillation fluid (PerkinElmer, Waltham, MA, USA) was added, and DPM (disintegrations per minute) were determined using a TriCarb 2900 scintillation counter (PerkinElmer, Waltham, MA, USA).
All competition curves (n ≥ 3 per ligand) were determined in triplicate. Data were analyzed using GraphPad Prism 6 (GraphPad Software, San Diego, CA, USA) to determine ligand affinity (Ki) and Hill coefficient (nH) using the one-site Ki and four-parameter logistics equations, respectively.

human mGluR4 = target: T2, human mGluR4 (Homo sapiens, UniProt Q14833); assay: mGluR4 functional assay (IP1 accumulation, HEK293A cells); assay type: cell-based; conditions: 0.1 mM compound
T2 construct: expressed in transfected cells; host or cells: HEK293A (transient, Lipofectamine 2000)
Description: (§1) Dulbecco’s modified Eagle medium (DMEM), dialyzed fetal bovine serum (FBS), Opti-MEM, penicillin-streptomycin, Dulbecco’s phosphate-buffered saline (DPBS), Hank’s balanced salt solution (HBSS) and Lipofectamine 2000 were purchased from Thermo Fisher Scientific (Waltham, MA, USA). An IP-One Gq kit was purchased from Cisbio (Codolet, France). Quisqualate and poly-D-lysine (PDL) hydrobromide were purchased from Sigma-Aldrich (St. Louis, MO, USA). Falcon clear, tissue culture-treated 96-well plates were from Corning Inc. (Corning, NY, USA). OptiPlate-384 white, opaque 384-well plates were from PerkinElmer, (Waltham, MA, USA). L-AP4 and LY341495 were purchased from Tocris Bioscience (Bristol, UK). The HEK293A cells were a kind gift from Dr. Asuka Inoue (Tohoku University, Sendai, Japan). Plasmids encoding human mGluR4 and Flag-tagged human mGluR5 were kind gifts from Jesper M. Mathiesen (University of Copenhagen, København, Denmark). […]
(§2) Cell culture and IP1 Assay. […] IP1 accumulation was measured on an EnVision 2104 Multilabel Reader using a 340/60 nm excitation filter and 615/8.5 nm (donor) and 665/7.5 nm (acceptor) emission filters. HTRF ratios were calculated as the ratio of acceptor over donor emission (665 nm/615 nm) and converted to IP1 concentrations with an IP1 standard curve according to the instructions from the kit manufacturer.

human mGluR5 = target: T3, human mGluR5 (Homo sapiens, UniProt P41594); assay: mGluR5 functional assay (IP1 accumulation, HEK293A cells); assay type: cell-based; conditions: 0.1 mM compound
T3 construct: Flag; expressed in transfected cells; host or cells: HEK293A (transient, Lipofectamine 2000)
Description: as §1, §2

T2 sequence (Q14833 33-912): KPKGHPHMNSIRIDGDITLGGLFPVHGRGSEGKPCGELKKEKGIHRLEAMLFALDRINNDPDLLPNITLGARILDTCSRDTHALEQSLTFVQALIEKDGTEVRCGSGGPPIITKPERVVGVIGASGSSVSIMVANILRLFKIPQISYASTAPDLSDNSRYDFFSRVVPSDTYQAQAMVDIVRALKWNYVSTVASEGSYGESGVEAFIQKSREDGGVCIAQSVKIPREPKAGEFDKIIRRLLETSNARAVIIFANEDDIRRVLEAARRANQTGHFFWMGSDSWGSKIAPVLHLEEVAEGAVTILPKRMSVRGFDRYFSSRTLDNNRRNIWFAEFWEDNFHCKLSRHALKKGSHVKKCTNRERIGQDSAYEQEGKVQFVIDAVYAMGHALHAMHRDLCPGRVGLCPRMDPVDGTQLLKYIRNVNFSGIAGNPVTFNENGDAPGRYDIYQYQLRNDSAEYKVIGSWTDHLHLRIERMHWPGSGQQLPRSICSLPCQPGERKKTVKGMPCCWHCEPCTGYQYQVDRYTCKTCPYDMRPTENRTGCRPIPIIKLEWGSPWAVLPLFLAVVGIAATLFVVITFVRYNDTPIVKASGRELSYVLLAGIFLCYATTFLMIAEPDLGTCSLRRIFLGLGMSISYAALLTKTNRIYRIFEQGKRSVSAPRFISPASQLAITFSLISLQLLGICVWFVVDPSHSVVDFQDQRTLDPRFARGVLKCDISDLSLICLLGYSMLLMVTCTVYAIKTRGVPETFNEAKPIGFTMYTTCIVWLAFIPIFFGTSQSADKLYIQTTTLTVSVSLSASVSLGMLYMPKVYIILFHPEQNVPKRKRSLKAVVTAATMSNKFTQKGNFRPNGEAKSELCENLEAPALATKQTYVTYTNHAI
T3 sequence (P41594 21-1212): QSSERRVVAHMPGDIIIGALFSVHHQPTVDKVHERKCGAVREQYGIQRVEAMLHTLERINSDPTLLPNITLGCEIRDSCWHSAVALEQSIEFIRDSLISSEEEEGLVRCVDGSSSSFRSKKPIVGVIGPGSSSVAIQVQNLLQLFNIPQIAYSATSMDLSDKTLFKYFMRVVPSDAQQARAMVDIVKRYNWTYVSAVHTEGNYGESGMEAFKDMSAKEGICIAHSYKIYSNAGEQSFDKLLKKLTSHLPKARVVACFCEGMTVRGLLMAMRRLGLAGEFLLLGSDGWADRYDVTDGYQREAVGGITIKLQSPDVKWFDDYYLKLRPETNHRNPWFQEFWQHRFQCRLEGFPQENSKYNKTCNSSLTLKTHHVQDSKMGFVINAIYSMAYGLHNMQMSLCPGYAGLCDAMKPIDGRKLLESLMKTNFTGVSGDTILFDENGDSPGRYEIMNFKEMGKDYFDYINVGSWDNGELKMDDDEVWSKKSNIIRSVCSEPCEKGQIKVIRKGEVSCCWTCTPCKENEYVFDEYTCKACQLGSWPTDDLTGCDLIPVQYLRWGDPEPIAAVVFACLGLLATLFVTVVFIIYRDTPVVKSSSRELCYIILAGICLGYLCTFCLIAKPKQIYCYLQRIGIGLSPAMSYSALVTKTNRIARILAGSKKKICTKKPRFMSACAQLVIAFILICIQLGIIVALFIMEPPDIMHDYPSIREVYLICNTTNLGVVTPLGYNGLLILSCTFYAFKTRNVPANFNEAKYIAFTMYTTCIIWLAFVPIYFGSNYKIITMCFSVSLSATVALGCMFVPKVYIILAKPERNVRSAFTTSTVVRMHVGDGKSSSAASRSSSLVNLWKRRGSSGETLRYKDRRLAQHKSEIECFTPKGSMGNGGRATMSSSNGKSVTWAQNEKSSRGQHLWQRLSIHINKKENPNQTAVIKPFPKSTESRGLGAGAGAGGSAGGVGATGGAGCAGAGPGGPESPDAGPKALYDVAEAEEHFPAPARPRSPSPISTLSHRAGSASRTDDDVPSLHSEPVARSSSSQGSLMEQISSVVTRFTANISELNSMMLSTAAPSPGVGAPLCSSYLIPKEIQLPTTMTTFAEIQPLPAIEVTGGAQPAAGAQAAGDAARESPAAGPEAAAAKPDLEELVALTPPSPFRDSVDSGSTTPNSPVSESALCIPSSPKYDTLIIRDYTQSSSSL
T1 sequence (P42260 32-908): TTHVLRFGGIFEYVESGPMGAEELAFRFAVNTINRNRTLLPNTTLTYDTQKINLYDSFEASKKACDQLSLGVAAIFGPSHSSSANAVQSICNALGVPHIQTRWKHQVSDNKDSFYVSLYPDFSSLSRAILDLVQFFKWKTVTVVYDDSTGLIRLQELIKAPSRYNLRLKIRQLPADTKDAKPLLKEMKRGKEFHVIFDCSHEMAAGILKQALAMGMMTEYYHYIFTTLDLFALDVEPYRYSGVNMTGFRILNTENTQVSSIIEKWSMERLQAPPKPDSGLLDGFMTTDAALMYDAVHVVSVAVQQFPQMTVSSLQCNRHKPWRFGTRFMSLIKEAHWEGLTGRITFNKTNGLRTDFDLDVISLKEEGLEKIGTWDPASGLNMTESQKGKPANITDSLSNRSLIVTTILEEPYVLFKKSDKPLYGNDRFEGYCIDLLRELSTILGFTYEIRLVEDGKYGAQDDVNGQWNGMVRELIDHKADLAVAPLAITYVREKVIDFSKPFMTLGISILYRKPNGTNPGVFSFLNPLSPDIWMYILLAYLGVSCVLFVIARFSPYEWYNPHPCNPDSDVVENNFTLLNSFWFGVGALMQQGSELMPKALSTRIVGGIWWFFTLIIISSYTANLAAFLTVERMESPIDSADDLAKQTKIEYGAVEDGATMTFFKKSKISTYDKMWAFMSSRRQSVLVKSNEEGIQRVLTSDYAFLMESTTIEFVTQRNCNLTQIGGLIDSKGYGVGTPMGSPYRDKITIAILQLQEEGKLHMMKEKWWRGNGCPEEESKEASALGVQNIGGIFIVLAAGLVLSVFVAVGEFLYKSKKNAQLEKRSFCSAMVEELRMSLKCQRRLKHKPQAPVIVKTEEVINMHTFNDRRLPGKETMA

- Ki (GluK2): > 100 µM
- agonist or antagonist activity at mGluR4 (human mGluR4): neither agonistic nor antagonistic
- agonist or antagonist activity at mGluR5 (human mGluR5): neither agonistic nor antagonistic
SMILES: O=C(Nn1c(=O)c(=O)[nH]c2cc(C#Cc3cnc4cccnn34)ccc21)c1ccccc1 [Compound 28]
